Laboratory results as given in a melting point compilation (Tetko et al.; mined from patent text by program, amines drawn as free bases though some values may be those of a salt).

SMILES | melting point [°C]
OC(CN1CCN(C(c2ccccc2)c2ccccc2)CC1)c1ccc(OCc2ccccc2)cc1 (stereo not given) | 129
COC(=O)C1=CC(C(=O)c2cc(C)ccc2O)=CN2CCc3c([nH]c4ccccc34)C12C(=O)OC (stereo not given) | 197
OCCCOc1cccc2cccnc12 | 126 to 127
O=C(C=Cc1ccncc1)C=Cc1ccncc1 | 145 to 146
COc1c(N2CCC(C(O)CO)CC2)c(F)cc2c(=O)c(C(=O)O)cn(C3CC3)c12 (stereo not given) | 200 to 204
CCOC(=O)c1c(O)c2ccc(C)nc2[nH]c1=O | 190 to 193
O=C1CCC2(CC2)C(=O)C1 | 116 to 118
Clc1nc(N2CCCCC2)c2ncnc(Cl)c2n1 | 114 to 117
C=C1CCC(C(=O)OC)Cc2onc(-c3ccc(Cl)cc3)c21 (stereo not given) | 113 to 114
O=C(O)COc1cccnc1Br | 172 to 174
CCOC(=O)CNc1c(C)cccc1[N+](=O)[O-] | 49 to 52
CC(C)Oc1nc(O)ns1 | 74
CC(C)(C)c1cc(-c2nn(C3CCOC3=O)c3ncccc23)cc(C(C)(C)C)c1O (stereo not given) | 164 to 167
CCOC(=O)C=Cc1ccc(N)cc1C | 73 to 74
O=c1ccc(-c2ccc(OC3CCN(C4CCCC4)CC3)cc2)n[nH]1 | 211 to 213
CC(=O)OC1CSC(Oc2cc(-c3cccnc3)cnc2F)C(OC(C)=O)C1OC(C)=O (stereo not given) | 67 to 68
C=Cn1cc(C(=O)O)c(=O)c2cc(F)c(F)c(F)c21 | 186 to 187
CCOC(=O)C(C)(C(=O)OCC)C(=O)c1cc([N+](=O)[O-])cc(Br)c1Cl | 75 to 76.5
OC(Cn1cncn1)c1ccc(Oc2ccc(Br)cc2)cc1Cl (stereo not given) | 115 to 118
CC12CC(N3CCOCC3)C(O)CC1CCC1C2CCC2(C)C(C(=O)CCl)CCC12 (stereo not given) | 181
CCCCCCCCCCCCCCn1nnc(NC(=O)Nc2c(C(C)C)cccc2C(C)C)n1 | 112 to 114

SMILES | melting point [°C]
CC12C=CC(O)CC1CCC1C2CCC2(C)C(C#N)CCC12 (stereo not given) | 129 to 133
O=C(O)CCC(=O)c1cccc(S(=O)(=O)Cl)c1 | 73 to 78
C/C(=C(\C#N)C(=S)/N=C/N(C)C)N1CCCN(c2ccc(Cl)cc2)CC1 | 259 to 264
N#Cc1ccc2cc(CBr)ccc2c1 | 134 to 137
CC(C)(O)CN1CCN(c2ccc3nc(-c4cccs4)c(-c4ccncc4)n3n2)CC1 | 165 to 168
CCOC(=O)c1nn(C)c(-c2ccccc2)c1S(N)(=O)=O | 141 to 144
O=[N+]([O-])c1ccc(C#CCCN2CCN(c3ccccn3)CC2)nc1 | 126
CC(=O)Oc1ccccc1C1SC[C@@H](C(=O)O)N1C(=O)CCSC(C)=O (stereo not given in full) | 144 to 145
CC(C)(C)OC(=O)NCCNC(=O)c1csc(Cl)n1 | 127 to 129
O=C(NCCCCCC1CCSS1)c1cccnc1 (stereo not given) | 41 to 44
CC(=O)SCCC(=O)N1[C@@H](c2ccccc2O)SC[C@H]1C(=O)N[C@@H](CCC(=O)O)C(=O)O | 93 to 98
CCOCCc1c(-c2ccccc2)nc(Cl)n2ncnc12 | 134 to 135
CCN(CC)C(=O)COC(=O)c1ccc(O)cc1 | 148 to 149
O=C1OC2CC1(O)CC(O)C2O (stereo not given) | 184 to 188
Cc1ccccc1Cc1c(C)c(NC(=O)CC(C)(C)C)c(C)c2c1OC(C)(C)C2 | 175 to 176
Clc1cc(Br)c2ccccc2c1Cl | 84 to 86
CC(=N)NC(=O)Nc1ccc(C#N)c(Cl)c1 | 182 to 183
O=C(NCCCCn1cncn1)c1ccc(Cl)s1 | 97 to 99
O=C1C=C(NC(=O)C(=O)c2cn(Cc3c(F)cccc3Cl)c3ccccc23)CO1 | > 270
C=C(CCC)C(=O)c1ccc(OC2(C(=O)O)CCC2)c(Cl)c1Cl | 105 to 106

The next lines start with the values.

melting point [°C] | SMILES
> 250 | Nc1nc(N)nc(-c2ccc(NS(=O)(=O)c3cccc4ccccc34)cc2)n1
215 to 216 | Cc1nnc(-c2ccc3ccn(-c4ccc(S(C)=O)cc4)c3c2)o1 (stereo not given)
56.5 to 57.5 | COc1ccc(OCCc2ccccc2)c(CC(=O)O)c1
136 to 137 | CCCCCS(=O)(=O)NC(=O)CCc1cc(C(C)(C)C)nn1Cc1ccc(C(F)(F)F)cc1Cl
264 to 266 | CC(=O)Nc1cc(-n2c(=O)cc(C(F)(F)F)[nH]c2=O)c(F)cc1Cl
> 300 | Cc1nc(NC(=O)Nc2ccc(Cl)cc2)sc1C(=O)NCc1ccccc1
108 | Cl/C(=C\c1ccc(Br)cc1)c1ccc(Cl)cc1
94 | CC(C)(C)c1ccc(S(=O)(=O)N2c3ccccc3C[C@H]2C(=O)NCc2cccc(O)c2)cc1
167 to 171 | COc1cc2c(cc1OCCN(C)C)N(C(=O)c1ccc(-c3ccc(C#N)cc3C)cc1)CC2
60.5 | C=CCCC(C#N)(C#N)Cc1ccc(OC(F)(F)C(F)F)cc1
280 to 281 | Cc1nc2cc(NC(=O)c3cc4cc(C(F)(F)F)ccc4n3Cc3cccc(F)c3)ccn2c1C
159 to 160 | COCn1ncc2cc(-c3nnc(SCc4cccc(C(F)(F)F)c4)o3)ccc21
52 to 55 | COCC1=C(C(=O)OC)[C@H](c2ccc(F)c(F)c2)N(C(=O)NCCC(=O)O)C(=O)N1
207 to 209 | CC(=Cc1ccc2[nH]ccc2c1)C(=O)O
188 to 191 | O=C(Nc1ccc(F)c(C(F)(F)F)c1)N1COc2cc(Oc3cc(Cl)ncn3)ccc21
153 to 154 | O=CN(O)C(CO)CS(=O)(=O)c1ccc(-c2ccc(Cl)cc2)cc1 (stereo not given)
56 | COC(=O)CCc1ccc(CNC(=O)[C@@H]2Cc3ccccc3N2S(=O)(=O)c2ccc(C(C)(C)C)cc2)cc1
108 to 110 | O=C1C(Cc2ccccc2Cl)c2cc([N+](=O)[O-])ccc2ON1CCO (stereo not given)
267 to 269 | O=C1CCC(N2Cc3c(OCc4ccc5ncccc5c4)cccc3C2=O)C(=O)N1 (stereo not given)
232 to 234 | Cc1cccc(-c2n[nH]cc2-c2ccnc(-c3ccc(S(C)(=O)=O)cc3)c2)n1

melting point [°C] | SMILES
119 | CC(=O)C(C)Oc1cc(-n2c(=O)cc(C(F)(F)F)n(C)c2=O)c(F)cc1Br (stereo not given)
210 to 212 | COc1ccc(C2(C)C(=O)Nc3cc(Cl)cc(Cl)c3C2=O)cc1 (stereo not given)
293 to 294 | CCCCc1nc2c(C)c(Cl)cc(C(=O)O)c2n1Cc1ccc(C(=O)O)cc1
173 to 174 | CC(C)(C)c1cc(OCc2ccccc2C(=O)O)cc(C(C)(C)C)c1
138 to 140 | CC(C)(C)c1ccc(S(=O)(=O)NCCCCOc2ccc(-n3ccnc3)cc2)cc1
158 | Cc1cccc(CN2NCC(=O)NC2=O)c1
179 | Cc1ccnc(C(=O)c2[nH]c3ccc(Cl)cc3c2CC(=O)N2CCC(N)C2)c1 (stereo not given)
261 to 263 | COc1cccc2c1nc(C(F)F)n2-c1nc(Nc2ccc(F)nc2)nc(N2CCOCC2)n1
148 | Cc1cccc(-c2n[nH]cc2-c2ccnc(-c3ccc(C(=O)NC4CCOCC4)cc3)c2)n1
58 to 59 | COC(=O)c1cc(N=Cc2ccccc2)ccc1O
161 to 162 | CCC(C)c1ccccc1SC1=C(O)CC(c2ccccc2)(c2ccccc2)OC1=O (stereo not given)
104 to 105 | CCCc1nn(-c2ccc(C(F)(F)F)cn2)cc1/C=C/C(=O)OCC
113 to 115 | COc1ccc2c(c1)Oc1ccc(Cl)cc1NC2
100 to 101 | COc1cccc(CC(=O)O)c1OCCCc1ccc(OC(C)C)cc1Oc1ncc(C(F)(F)F)cc1Cl
113 to 117 | CNc1cc(CC2(C)CC3C(=C(C)C(C)=C(N)C3C)O2)ccc1-c1ccn[nH]1 (stereo not given)
210 to 212 | COc1ccc(C=C2SC(=O)NC2=O)cc1C(=O)NCc1ccc(C(F)(F)F)cc1
314 to 316 | CCn1c(=O)c2cc(C(=O)O)cn2c2ccccc21
158 | O=C1Cc2ccccc2N1c1c(Cl)cc(OCc2ccc3ccccc3n2)cc1Cl
205 to 210 | CCCc1c(COc2ccc(Cc3nnnn3CC(=O)O)cc2)ccc(C(C)=O)c1O
275 to 277 | O=C(c1ccccc1)N1CCc2c(c(=O)[nH]c3ccccc23)C1

melting point [°C] | SMILES
143 to 145 | O=C1C(=O)c2ccccc2C2=C1SCC1(CCN(CC(O)COCc3ccco3)CC1)O2 (stereo not given)
151 to 152 | O=C1NC(=O)N(CCc2ccc(Cl)cc2)C1O (stereo not given)
71 to 73 | FC(F)=Cc1nn(-c2c(Cl)cc(C(F)(F)F)cc2Cl)cc1C1CC1(Br)Br (stereo not given)
88 | Nc1cc2c(cc1CCN1CCN(c3cccc(C(F)(F)F)c3)CC1)OCO2
80 to 81 | CC(=O)c1ccc(OCCCc2ccccc2)cc1
142 to 143 | CCCc1c(OCCCOc2cccc(C(=O)O)c2)ccc(C(C)=O)c1O
82 to 85 | CCN1C(=O)CCCc2cc(Nc3ncc(Cl)c(Nc4ccccc4-n4cccn4)n3)c(OC)cc21
113 to 115 | Cc1noc(NS(=O)(=O)c2cccc(C(F)(F)F)c2)c1Br
146 to 147 | Cc1oc(-c2ccccc2)nc1C(O)COc1ccc(CCCC2OC(=O)NC2=O)cc1 (stereo not given)
238 to 239 | COc1ccc(C(=O)Nc2ncnc3c2ncn3[C@H]2CC[C@H](CC(=O)O)C[C@@H]2NC(=O)OC(C)(C)C)cc1
168 to 170 | O=C(c1ccc(F)cc1)C1CCN(C(=O)c2ccc([N+](=O)[O-])cc2)CC1
74 to 75 | Cc1c(C2=CCC(Cc3ccccc3)(N(C)C)CC2)[nH]c2ccc(OC(F)(F)F)cc12 (stereo not given)
68 to 69 | CCCc1ccc(C2c3c(C)c(N)c(C)c(C)c3OC2(C)C)cc1 (stereo not given)
82 to 83 | CCCOc1ccc(/C=C/c2cc(OC)c(OC)c(OC)c2)cc1
184 to 186 | COc1ccc(S(=O)(=O)Nc2cc(C(=O)Nc3ccccc3)ccc2OC)cc1
171 to 174 | COc1ccc(C2CNC(=O)N2C)cc1NC1CC2CCC1C2 (stereo not given)
134 to 135 | CCCCCCc1ccc(-n2c(-c3ccc(C)cc3)cc(Br)c2-c2ccc(C)cc2)cc1
127 | N#Cc1cnn(-c2ccc(C(F)(F)F)cc2Cl)c1Br
251 to 254 | CCCNc1cccc(-c2ccc(C(=O)O)c(=O)[nH]2)c1
